Data as given in ChEMBL document CHEMBL1201862, “PubChem BioAssay data set” (2004).
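Tested at 5 concentrations; 48 h exposure; 96-well plates; endpoints linearly interpolated, else capped at highest concentration. At the GI50, growth is halved.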 Active and inactive are the calls of the source. Rule as the data show it: active = GI50 up to about 1.1 µM and inactive = higher. Square brackets hold non-standard residues; d marks the D form. Peptide text beside a SMILES is read from it. * marks the point of attachment. X26 = COC1=CC(=O)N(C(=O)[C@@H](O*)C(C)C)[C@H]1Cc1ccccc1; Bn2Val = CC(C)[C@@H](C(=O)*)N(Cc1ccccc1)Cc1ccccc1; NMeV = CN[C@H](C(=O)O)C(C)C; dNMeA = CN[C@H](C)C(=O)O

Legend:
Assay in all cases: growth of human tumour cells (NCI), 48 h
OVCAR-8 = tested on: OVCAR-8
UACC-257 = tested on: UACC-257
HT-29 = tested on: HT-29
HCT-116 = tested on: HCT-116
HCT-15 = tested on: HCT-15
HOP-62 = tested on: HOP-62
K562 = tested on: K562
MDA-N = tested on: MDA-N
UO-31 = tested on: UO-31
KM12 = tested on: KM12
T47D = tested on: T47D
SW-620 = tested on: SW-620
PC-3 = tested on: PC-3
BT-549 = tested on: BT-549
HCC 2998 = tested on: HCC 2998
SF-268 = tested on: SF-268
SK-OV-3 = tested on: SK-OV-3
SK-MEL-2 = tested on: SK-MEL-2
UACC-62 = tested on: UACC-62
SR = tested on: SR
NCI/ADR-RES = tested on: NCI/ADR-RES
IGROV-1 = tested on: IGROV-1
NCI-H226 = tested on: NCI-H226
COLO 205 = tested on: COLO 205
Hs-578T = tested on: Hs-578T
NCI-H522 = tested on: NCI-H522
RXF 393 = tested on: RXF 393
Malme-3M = tested on: Malme-3M
SK-MEL-5 = tested on: SK-MEL-5
A498 = tested on: A498
EKVX = tested on: EKVX
SN12C = tested on: SN12C
TK-10 = tested on: TK-10
U-251 = tested on: U-251
OVCAR-3 = tested on: OVCAR-3
MDA-MB-435 = tested on: MDA-MB-435
M14 = tested on: M14
OVCAR-5 = tested on: OVCAR-5
786-0 = tested on: 786-0
ACHN = tested on: ACHN
CAKI-1 = tested on: CAKI-1
LOX IMVI = tested on: LOX IMVI
SK-MEL-28 = tested on: SK-MEL-28
SF-295 = tested on: SF-295
MCF7 = tested on: MCF7
MDA-MB-231 = tested on: MDA-MB-231
A549 = tested on: A549
SF-539 = tested on: SF-539
SNB-19 = tested on: SNB-19
CCRF-CEM = tested on: CCRF-CEM
DU-145 = tested on: DU-145
HOP-92 = tested on: HOP-92
NCI-H460 = tested on: NCI-H460
OVCAR-4 = tested on: OVCAR-4
RPMI-8226 = tested on: RPMI-8226
NCI-H23 = tested on: NCI-H23
MOLT-4 = tested on: MOLT-4
SNB-75 = tested on: SNB-75
HL-60 = tested on: HL-60

`COC1=CC(=O)N(C(=O)[C@@H](OC(=O)[C@@H](C)N(C)C(=O)[C@@H]2CCCN2C(=O)[C@H](C(C)C)N(C)C(=O)[C@@H](NC(=O)[C@H](C(C)C)N(Cc2ccccc2)Cc2ccccc2)C(C)C)C(C)C)[C@H]1Cc1ccccc1` (Bn2Val-V[NMeV]P[dNMeA]-X26) was tested, and the GI50 (OVCAR-8) was > 100 µM (inactive), the GI50 (UACC-257) was > 26.1 µM (inactive) and the GI50 (HT-29) was > 100 µM (inactive). The GI50 (HCT-116) was 4.32 µM (inactive), the GI50 (HCT-15) was > 100 µM and the GI50 (HOP-62) was > 57.3 µM (inactive). For the same compound, the GI50 (K562) was 6.78 µM (inactive), the GI50 (MDA-N) was > 100 µM (inactive) and the GI50 (UO-31) was 6.44 µM (inactive). The GI50 (KM12) was > 31.3 µM (inactive), the GI50 (T47D) was > 100 µM (inactive) and the GI50 (SW-620) was > 100 µM (inactive). For the same compound, the GI50 (PC-3) was 6.3 µM (inactive), the GI50 (BT-549) was > 100 µM (inactive) and the GI50 (HCC 2998) was > 100 µM (inactive). For the same compound, the GI50 (SF-268) was > 100 µM (inactive), the GI50 (SK-OV-3) was > 100 µM (inactive) and the GI50 (SK-MEL-2) was > 50.7 µM (inactive). The GI50 (UACC-62) was > 60.7 µM (inactive), the GI50 (SR) was > 100 µM (inactive) and the GI50 (NCI/ADR-RES) was > 100 µM (inactive). For the same compound, the GI50 (IGROV-1) was > 100 µM (inactive), the GI50 (NCI-H226) was > 26.3 µM (inactive) and the GI50 (COLO 205) was > 100 µM (inactive). The GI50 (Hs-578T) was > 100 µM (inactive), the GI50 (NCI-H522) was > 100 µM (inactive) and the GI50 (RXF 393) was > 26.2 µM (inactive). For the same compound, the GI50 (Malme-3M) was > 59.6 µM (inactive), the GI50 (SK-MEL-5) was 23.9 µM (inactive) and the GI50 (A498) was 38.2 µM (inactive). The GI50 (EKVX) was > 44.5 µM (inactive), the GI50 (SN12C) was > 100 µM (inactive) and the GI50 (TK-10) was > 100 µM (inactive). For the same compound, the GI50 (U-251) was 11.4 µM (inactive), the GI50 (OVCAR-3) was > 100 µM (inactive) and the GI50 (MDA-MB-435) was > 100 µM (inactive). The GI50 (M14) was 68.1 µM (inactive), the GI50 (OVCAR-5) was > 100 µM (inactive) and the GI50 (786-0) was 98.2 µM (inactive). The GI50 (ACHN) was > 100 µM (inactive), the GI50 (CAKI-1) was > 100 µM (inactive) and the GI50 (LOX IMVI) was > 100 µM (inactive). For the same compound, the GI50 (SK-MEL-28) was > 100 µM (inactive), the GI50 (SF-295) was > 71.3 µM (inactive) and the GI50 (MCF7) was 8.65 µM (inactive). The GI50 (MDA-MB-231) was 13.4 µM (inactive), the GI50 (A549) was > 100 µM (inactive) and the GI50 (SF-539) was > 37.2 µM (inactive). For the same compound, the GI50 (SNB-19) was > 90.2 µM (inactive), the GI50 (CCRF-CEM) was > 100 µM (inactive) and the GI50 (DU-145) was > 100 µM (inactive). For the same compound, the GI50 (HOP-92) was > 49.3 µM (inactive), the GI50 (NCI-H460) was > 100 µM (inactive) and the GI50 (OVCAR-4) was > 100 µM (inactive).
For `Nc1nc(NCCCO)cc(=O)[nH]1`, the GI50 (OVCAR-8) was > 100 µM (inactive), the GI50 (RPMI-8226) was > 100 µM (inactive) and the GI50 (UACC-257) was > 100 µM (inactive). For the same compound, the GI50 (HT-29) was > 100 µM (inactive), the GI50 (HCT-116) was > 100 µM (inactive) and the GI50 (HCT-15) was > 100 µM. For the same compound, the GI50 (HOP-62) was > 100 µM (inactive), the GI50 (K562) was > 100 µM (inactive) and the GI50 (MDA-N) was > 100 µM (inactive). The GI50 (UO-31) was > 100 µM (inactive), the GI50 (KM12) was > 100 µM (inactive) and the GI50 (T47D) was > 100 µM (inactive). The GI50 (SW-620) was > 100 µM (inactive), the GI50 (PC-3) was > 100 µM (inactive) and the GI50 (BT-549) was > 100 µM (inactive). The GI50 (HCC 2998) was > 100 µM (inactive), the GI50 (SF-268) was > 100 µM (inactive) and the GI50 (SK-OV-3) was > 100 µM (inactive). The GI50 (SK-MEL-2) was > 100 µM (inactive), the GI50 (UACC-62) was > 100 µM (inactive) and the GI50 (SR) was > 100 µM (inactive). For the same compound, the GI50 (NCI/ADR-RES) was > 100 µM (inactive), the GI50 (IGROV-1) was > 100 µM (inactive) and the GI50 (NCI-H226) was > 100 µM (inactive). For the same compound, the GI50 (COLO 205) was > 100 µM (inactive), the GI50 (NCI-H23) was > 100 µM (inactive) and the GI50 (Hs-578T) was > 100 µM (inactive). The GI50 (NCI-H522) was > 100 µM (inactive), the GI50 (RXF 393) was > 100 µM (inactive) and the GI50 (Malme-3M) was > 100 µM (inactive). For the same compound, the GI50 (SK-MEL-5) was > 100 µM (inactive), the GI50 (A498) was > 100 µM (inactive) and the GI50 (EKVX) was > 100 µM (inactive). For the same compound, the GI50 (SN12C) was > 100 µM (inactive), the GI50 (U-251) was > 100 µM (inactive) and the GI50 (OVCAR-3) was > 100 µM (inactive). For the same compound, the GI50 (MDA-MB-435) was > 100 µM (inactive), the GI50 (MOLT-4) was > 100 µM (inactive) and the GI50 (M14) was > 100 µM (inactive). For the same compound, the GI50 (OVCAR-5) was > 100 µM (inactive), the GI50 (786-0) was > 100 µM (inactive) and the GI50 (ACHN) was > 100 µM (inactive). The GI50 (CAKI-1) was > 100 µM (inactive), the GI50 (LOX IMVI) was > 100 µM (inactive) and the GI50 (SK-MEL-28) was > 100 µM (inactive). The GI50 (SNB-75) was > 100 µM (inactive), the GI50 (HL-60) was > 100 µM (inactive) and the GI50 (SF-295) was > 100 µM (inactive). For the same compound, the GI50 (MCF7) was > 100 µM (inactive), the GI50 (MDA-MB-231) was > 100 µM (inactive) and the GI50 (A549) was > 100 µM (inactive). The GI50 (SNB-19) was > 100 µM (inactive), the GI50 (CCRF-CEM) was > 100 µM (inactive) and the GI50 (DU-145) was > 100 µM (inactive). The GI50 (HOP-92) was > 100 µM (inactive), the GI50 (NCI-H460) was > 100 µM (inactive) and the GI50 (OVCAR-4) was > 100 µM (inactive).
